Laboratory results as given in US9018174B2, “Mouse model and treatment of hereditary inclusion body myopathy” (HIBM Research Group, Inc., priority 2008, dated 2015).
Substitutions are numbered along the chain they refer to. Several values for one entry are separate records, joined by “and”; a condition that tells them apart may be missing. Equal entries are not always repeated. Entries after “also recorded” stand apart in the source; their conditions may differ.

Assays:
cultured cells = settings: SiaLev or SiaNAz as downstream product; cited from earlier work
podocalyxin = assay: Immunoblot of podocalyxin sialylation in kidney extracts after ManNAc feeding; assay type: in vivo, mouse; settings: -/- kidneys
Text: (§1) Antibodies. A rabbit polyclonal antibody was custom prepared against a GNE/MNK peptide comprising amino acids 588-607: […] (SEQ ID NO:24), coupled to keyhole limpet hemocyanine (KLH) and affinity-purified against the corresponding antigenic peptide (Covance). Other primary antibodies were commercially obtained: dystrophin (ab15277, AbCam), α-dystroglycan (IIH6, Upstate Biotechnology), laminin (L9393, Sigma-Aldrich), podocalyxin (PODX15-A, Alpha Diagnostic International), PSA-NCAM (MAB5324, Chemicon), and β-actin (AAN01, Cytoskeleton).
(§2) Western blotting. Mouse tissues (age P2) were extracted, homogenized in CelLytic buffer, consisting of a mild detergent, bicine buffer and 150 mM NaC (CelLytic) supplemented with protease inhibitors (Complete Minia, Roche). The lysates were sonicated and cleared by centrifugation (1000 g for 10 min), and the resulting supernatants were assayed for protein concentration (BCA protein assay, Pierce). For the neuraminidase enzymatic treatments, protein homogenates (25 μg) were incubated with 1 mU/μg of Neuraminidase (N-6514, Sigma) for 30 min at 37° C. Equal amounts of protein (25-50 μg) were electrophoresed on 4-12% Tris-Glycine gels (Novex, Invitrogen), and electroblotted onto 0.45 μm Hybond ECL nitrocellulose membranes (Amersham Pharmacia Biotech). […]

GNE-M712T knock-in mice [1] = assay: Rescue of GNE-M712T knock-in mice by ManNAc feeding (survival of homozygous pups); assay type: in vivo, mouse
Protocol: GNE-M712T mice. GNE-M712T knock-in mice were generated by targeting the M712T (ATG>ACG) mutation exon 12 of the murine GNE gene (Uae1, Gne, GenBank NM_015828). The mutant mice were maintained in the C57BL/6J background. Animals were housed in ventilated cages in a temperature- and light-controlled environment (22° C., 30-70% humidity, 12-hour light/12-hour dark cycle) and were fed irradiated chow (Prolab 5P75 Isopro 3000; PMI Nutrition International) and water ad libitum. All euthanasia was performed with by CO2 followed by cervical dislocations. For Mendelian distribution studies, four pregnant mice E17-19 were euthanized and embryos were retrieved by cesarean section and euthanized by decapitation. All mouse procedures were performed in accordance with protocol G04-3 approved by the Institutional Animal […] and Use Committee of the National Human Genome Research Institute, National Institutes of Health Institutional Review Board.
(§3) ManNAc administration. Breeding pairs of 6-week-old +/− mice were divided into three groups. Group I consisted of 9 +/− breeding pairs who were administered untreated sterilized tap water. Group II consisted of one breeding pair of +/+ mice (wild-type control) and 6 +/− breeding pairs who were administered 1 mg/ml ManNAc (Sigma) supplemented water. Group III consisted of one +/+ breeding pair and 7 +/− breeding pairs who were administered 5 mg/ml ManNAc supplemented water. Water was changed twice weekly. Nursing females continued to be supplied with ManNAc. All mice were weaned from ManNAc at 21 days. Selected whole litters were sacrificed at age P2 or P6 for histological, genetic, biochemical or ultrastructural analysis.
Statistical analysis. Differences in genotype distribution (+/+: +/−-−/−) between an untreated control group and ManNAc treated group were tested by a two-tailed Fisher's exact test. To this end a 2×3 table was generated.

[2] = target: T1, UDP-GlcNAC 2-epimerase (GNE) (Mus musculus, UniProt Q91WG8); assay: GNE/MNK epimerase enzymatic assay on tissue after ManNAc feeding; assay type: in vivo; settings: +/+ mice, skeletal muscle, age P2, ManNAc treatment, n=3
T1 construct: Mouse kidney and skeletal muscle (hindlimb quadriceps) tissues were homogenized; from tissue; host or cells: skeletal muscle and kidney of GNE-M712T knock-in mice (C57BL/6J), age P2
T1 sequence (Q91WG8 1-722): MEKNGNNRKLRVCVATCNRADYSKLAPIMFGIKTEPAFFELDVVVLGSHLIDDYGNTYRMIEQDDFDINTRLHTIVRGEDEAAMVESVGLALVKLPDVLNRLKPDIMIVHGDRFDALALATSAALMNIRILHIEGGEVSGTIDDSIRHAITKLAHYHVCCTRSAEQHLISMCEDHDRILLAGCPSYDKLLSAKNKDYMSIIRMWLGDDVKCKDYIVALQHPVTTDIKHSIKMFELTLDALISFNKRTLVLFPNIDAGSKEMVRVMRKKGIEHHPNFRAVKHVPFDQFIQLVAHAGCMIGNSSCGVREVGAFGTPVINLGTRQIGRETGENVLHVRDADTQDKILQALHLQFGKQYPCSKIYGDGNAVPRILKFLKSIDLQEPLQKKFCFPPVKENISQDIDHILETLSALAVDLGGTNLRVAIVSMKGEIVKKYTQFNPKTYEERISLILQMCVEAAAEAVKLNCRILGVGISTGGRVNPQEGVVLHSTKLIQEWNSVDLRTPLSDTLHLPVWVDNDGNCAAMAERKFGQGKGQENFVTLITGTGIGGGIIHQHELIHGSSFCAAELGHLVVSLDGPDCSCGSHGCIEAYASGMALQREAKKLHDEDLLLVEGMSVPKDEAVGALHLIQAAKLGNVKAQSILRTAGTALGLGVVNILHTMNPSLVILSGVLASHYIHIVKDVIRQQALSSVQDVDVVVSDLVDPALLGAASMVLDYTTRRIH
Protocol: as §3
(§4) GNE/MNK enzymatic assays. Mouse kidney and skeletal muscle (hindlimb quadriceps) tissues were homogenized and subjected to the GNE/MNK epimerase enzymatic assay as described^11,44. This assay is based on incubation with radiolabeled substrate (UDP-[^3H]GlcNAc; American Radiolabeled Chemicals), and detection of radiolabeled product ([^3H]ManNAc) upon separation of oligosaccharides by high pH anion-exchange chromatography with pulsed amperometric detection (Dionex).

[3] = target: T2, UDP-GlcNAC 2-epimerase (GNE) (Mus musculus, UniProt Q91WG8, M712T); assay: as above; assay type: in vivo; settings: -/- mice, skeletal muscle, age P2, ManNAc treatment, n=7; untreated -/- 19%
T2 construct: Mouse kidney and skeletal muscle (hindlimb quadriceps) tissues were homogenized; from tissue; host or cells: skeletal muscle and kidney of GNE-M712T knock-in mice (C57BL/6J), age P2
T2 sequence (Q91WG8 1-722 M712T): T1 sequence (Q91WG8 1-722) with M712T
Protocol: as §3, §4

GNE/MNK protein = target: T3, GNE/MNK protein (Mus musculus, UniProt Q91WG8, M712T); assay: Immunoblot with anti-GNE/MNK antibodies of muscle and kidney extracts after ManNAc feeding; assay type: in vivo; settings: ManNAc treated, referenced to β-actin, untreated -/- 78% decreased
T3 construct: Mouse kidney and skeletal muscle (hindlimb quadriceps) tissues were homogenized; from tissue; host or cells: skeletal muscle and kidney of GNE-M712T knock-in mice (C57BL/6J), age P2
T3 sequence (Q91WG8 1-722 M712T): T1 sequence (Q91WG8 1-722) with M712T
Text: as §1, §2

[4] = tested on: GNE-deficient mouse embryonic stem cells; settings: growth medium supplemented with ManNAc; cited from earlier work
PSA-NCAM = assay: Immunoblot with PSA-NCAM antibodies of brain tissue after ManNAc feeding; assay type: in vivo, mouse; settings: n=14 pre treatment, n=10 post treatment, p=0.08
Text: as §1, §2

GNE-M712T knock-in mice [5] = assay: Tissue histology and electron microscopy of ManNAc treated -/- mice at P6; assay type: in vivo, mouse; settings: age P6
Protocol: Mouse Histology. Mouse tissues were collected, formalin-fixed and paraffin-embedded. Tissue sections (5 μm) were prepared and stained with hematoxylin and eosin following standard procedures (American Histolabs) or subjected to immunohostochemistry with a variety of primary antibodies. Formalin fixed tissues were deparafinized in Histoclear II (National Diagnostics), […] in a series of ethanol solutions. Antigen retrieval was performed for sections to be stained with the antibodies GNE/MNK (5 min boiling in citric acid based solution; Vector Laboratories) and dystrophin (boiling in 1 mM EDTA, according the manufacturer's protocol; AbCam). The sections were blocked (2% BSA, 10% donkey serum and 0.1% Triton X-100 in PBS) and incubated with primary antibodies (GNE/MNK 1:50; laminin 1:25; dystrophin 1:50) overnight at 4° C., followed by the secondary antibody Alexa 488 donkey-anti-rabbit (1:500 in blocking solution) (Invitrogen). The sections were mounted in Vectashield (Vector Laboratories) and viewed and digitally imaged with a Zeiss Axiovert 200M microscope (Carl Zeiss, Microimaging).
Electron Microscopy. […] The grids were viewed with a Philips 410 electron microscope (FEI Company) at 80 kV and images were recorded on Kodak SO-163 film (Kodak). […]

[6] = ManNAc 1 g/kg/day to +/- breeding pairs

| Compound | incorporation of sialic acid analogs into cell surface glycoconjugates (cultured cells) | podocalyxin sialylation status (podocalyxin) | surviving homozygous mice beyond age P3 (GNE-M712T knock-in mice [1]; 1 mg/ml ManNAc in drinking water during matings of +/- mice, 51 offspring) | homozygous pups surviving beyond P3, % of total -/- pups (GNE-M712T knock-in mice [1]; 5 mg ManNAc/ml in drinking water) [%] | number of homozygous pups that survived beyond P3 (GNE-M712T knock-in mice [1]; 5 mg ManNAc/ml in drinking water, out of 97 newborn pups) | homozygous mice that survived past P21 (GNE-M712T knock-in mice [1]; 5 mg ManNAc/ml in drinking water, supplementation ceased at P21) | -/- offspring that survived past P3 (GNE-M712T knock-in mice [1]; [6]) [%] | survivors past P3 that lived past weaning age P21 (GNE-M712T knock-in mice [1]; [6]) [%] | effect on survival of homozygous pups (GNE-M712T knock-in mice [1]; administration of ManNAc to pregnant mothers) | GNE activity in +/+ muscle, relative to untreated +/+ set at 100% [2] | residual GNE activity in -/- muscle, relative to untreated +/+ set at 100% [3] | decreased amount of GNE/MNK protein compared to +/+ littermates (GNE/MNK protein) | sialylation of hyposialylated cells [4] | increased PSA-NCAM signal compared to untreated -/- tissues (PSA-NCAM) | abnormalities in liver, heart and skeletal muscle tissues (GNE-M712T knock-in mice [5]) | kidney histology (GNE-M712T knock-in mice [5]) |
| --- | --- | --- | --- | --- | --- | --- | --- | --- | --- | --- | --- | --- | --- | --- | --- | --- |
| CC(=O)CCC(=O)N[C@@H]1C(O)O[C@H](CO)[C@@H](O)[C@@H]1O (some centres unmarked) [ManLev, N-levulinoylmannosamine] | resulted in incorporation of the downstream sialic acid analogs |  |  |  |  |  |  |  |  |  |  |  |  |  |  |  |
| CC(=O)N[C@@H]1C(O)O[C@H](CO)[C@@H](O)[C@@H]1O (some centres unmarked) [ManNAc, N-acetylmannosamine] |  | did not result in a statistically significant increase | did not yield any surviving homozygous mice beyond age P3 | 44 | 11 | Two | 42 | 18 | remarkably salutary effect on survival of homozygous pups | 114 (±10) % and ~114% | 31 (±9) % and 31% | 41 (±3) % | became resialylated | 2-28% | No abnormalities | mildly to remarkably improved histological features; also recorded: mildly to significantly improved kidney histology |
| [N-]=[N+]=NCC(=O)N[C@@H]1C(O)O[C@H](CO)[C@@H](O)[C@@H]1O (some centres unmarked) [ManNAz, N-azidoacetylmannosamine] | resulted in incorporation of the downstream sialic acid analogs |  |  |  |  |  |  |  |  |  |  |  |  |  |  |  |
